Target: BTK enzyme (recombinant full-length BTK, hBTK) (Homo sapiens (Human), UniProt Q06187)
Assay: Btk enzyme activity assay, LANCE TR-FRET
Type: biochemical
Details: 50 pM hBTK, 2 μM biotin-A5-peptide, 25 μM ATP; 60 minute compound & enzyme incubation; read-out: BTK binding IC50
Experimental: Btk Enzyme Activity Assay Methods
BTK enzymatic activity was determined with the LANCE (Lanthanide Chelate Excite) TR-FRET (Time-resolved fluorescence resonance energy transfer) assay. […] After 60 minutes incubation with detection reagents, reaction plates were read on a PerkinElmer EnVision plate reader using standard TR-FRET protocol.

Sequence of BTK enzyme (recombinant full-length BTK, hBTK) (Q06187 whole entry): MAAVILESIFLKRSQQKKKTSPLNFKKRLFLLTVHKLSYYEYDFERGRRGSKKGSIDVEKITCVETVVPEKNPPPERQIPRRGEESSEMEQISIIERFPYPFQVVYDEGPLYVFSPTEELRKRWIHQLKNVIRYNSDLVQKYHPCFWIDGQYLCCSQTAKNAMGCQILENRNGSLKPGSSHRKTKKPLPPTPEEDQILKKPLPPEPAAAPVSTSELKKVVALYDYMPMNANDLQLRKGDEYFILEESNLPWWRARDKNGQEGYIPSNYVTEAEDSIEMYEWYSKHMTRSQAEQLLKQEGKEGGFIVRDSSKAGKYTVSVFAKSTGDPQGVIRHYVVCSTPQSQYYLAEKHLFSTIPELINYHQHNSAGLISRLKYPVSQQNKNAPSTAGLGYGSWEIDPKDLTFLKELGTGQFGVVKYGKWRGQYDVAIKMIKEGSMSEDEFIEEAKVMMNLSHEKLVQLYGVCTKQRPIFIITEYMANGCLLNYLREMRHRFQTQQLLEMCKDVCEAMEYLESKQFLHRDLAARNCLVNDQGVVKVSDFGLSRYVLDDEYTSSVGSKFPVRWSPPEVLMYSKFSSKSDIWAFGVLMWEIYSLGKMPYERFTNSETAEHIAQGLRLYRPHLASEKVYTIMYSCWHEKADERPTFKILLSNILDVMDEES

Row | IC50 | Compound
1 | 0.0028 µM | C[C@]1(C(=O)O)CCC[C@@H](c2nc(-c3ccc(C(=O)Nc4cc(C5CC5)ccn4)cc3)c3c(N)nccn23)C1 [Example 155, (1S,3R)-3-(8-amino-1-{4-[(4-cyclopropylpyridin-2-yl)carbamoyl]phenyl}imidazo[1,5-a]pyrazin-3-yl)-1-methylcyclohexane-carboxylic acid]
2 | 0.0086 µM | Nc1nccn2c([C@H]3CN(C(=O)C4(C(=O)O)CCC4)CCO3)nc(-c3ccc(C(=O)Nc4cc(C(F)(F)F)ccn4)cc3F)c12 [Example 178, 1-({(2R)-2-[8-amino-1-(2-fluoro-4-{[4-(trifluoromethyl)pyridin-2-yl]carbamoyl}phenyl)imidazo [1,5-a]pyrazin-3-yl]morpholin-4-yl}carbonyl)cyclobutane-carboxylic acid]
3 | 0.0017 µM | Nc1nccn2c([C@@H]3CCC[C@H](C(=O)O)C3)nc(-c3ccc(C(=O)Nc4cc(OC5CC5)ccn4)cc3)c12 [Example 12, (1S,3R)-3-[8-amino-1-(4-{[4-(cyclopropyloxy)pyridin-2-yl]carbamoyl}phenyl)imidazo [1,5-a]pyrazin-3-yl]cyclohexane-carboxylic acid]
4 | 0.0021 µM | Nc1nccn2c([C@@H]3CCC[C@H](C(=O)O)C3)nc(-c3ccc(C(=O)Nc4cc(C5CC5)ccn4)cc3)c12 [Example 8, (1S,3R)-3-(8-amino-1-{4-[(4-cyclopropyl-pyridin-2-yl)carbamoyl]phenyl}imidazo [1,5-a]pyrazin-3-yl)cyclohexane-carboxylic acid]
5 | 0.0026 µM | Nc1nccn2c([C@H]3CCN[C@@H](C(=O)O)C3)nc(-c3ccc(C(=O)Nc4cc(C(F)(F)F)ccn4)cc3)c12 [Example 31, (2R,4S)-4-[8-amino-1-(4-{[4-(trifluoromethyl)pyridin-2-yl]carbamoyl}phenyl)imidazo[1,5-a]pyrazin-3-yl]piperidine-2-carboxylic acid]
6 | 0.0016 µM | COc1cc(C(=O)Nc2cc(C(F)(F)F)ccn2)ccc1-c1nc([C@@H]2CCC[C@H](C(=O)O)C2)n2ccnc(N)c12 [Example 11, (1S,3R)-3-[8-amino-1-(2-methoxy-4-{[4-(trifluoromethyl)pyridin-2-yl]carbamoyl}phenyl)imidazo [1,5-a]pyrazin-3-yl]cyclohexane-carboxylic acid]
7 | 0.0014 µM | CCc1ccnc(NC(=O)c2ccc(-c3nc([C@@H]4CCC[C@H](C(=O)O)C4)n4ccnc(N)c34)cc2)c1 [Example 7, (1S,3R)-3-(8-amino-1-{4-[(4-ethylpyridin-2-yl)carbamoyl]phenyl}imidazo [1,5-a]pyrazin-3-yl)cyclohexane-carboxylic acid]

System: HeLa cells
Assay: [3H] Adenosine uptake assay
Type: cell-based
Details: Homo sapiens, HeLa, accumulation of tritiated adenosine into HeLa cells; compound concentration range 10 μM to 0.032 nM; read-out: ADU inhibition IC50 (adenosine uptake inhibition potency)
Experimental: Compounds are also screen in an adenosine uptake functional cellular assay using the protocol described below:
[^3H] Adenosine Uptake Assay Methods
Adenosine uptake activity was determined by monitoring the accumulation of tritiated adenosine into HeLa cells (ATCC catalog #CCL-2) using a PMT-based radiometric detection instrument. […] These cells were incubated overnight at 37° C. in a humidified atmosphere with 5% (v/v) CO2. After this time the growth medium was removed and replaced with 40 μL assay medium comprising: Hanks balanced salts solution (HBSS; Thermo Fisher Catalog #SH30268.01)+5% (v/v) FBS. Compound stock solutions in DMSO were diluted in assay medium to 2.5× final compound concentration maintaining a constant DMSO concentration of 0.25% (v/v). 40 μL of compound in assay medium was dispensed into individual wells of the Cytostar-T plates and the plates were incubated for 30 minutes under ambient laboratory conditions. Following this incubation, 20 μL of 500 nM[^3H] adenosine (American Radiolabeled Chemicals Inc. Catalog #ART0287) in assay medium was added and incubated for a further 60 minutes under ambient laboratory conditions. The amount of radiolabel accumulation was then determined using a Perkin Elmer Topcount NXT microplate reader. In brief, HeLa cells adhere to the bottom of the Cytostar-T plate, uptake of [^3H]adenosine into these cells brings the radiolabel into sufficient proximity to excite the scintillant in the base of the plates. These events are captured by single PMT, time-resolved coincidence counting. IC50 values were determined by 4 parameter robust fit of counts per second values vs. (Log10) compound concentrations.

Row | IC50 | Compound
8 | 7.98 µM | Nc1nccn2c([C@@H]3CC[C@@H](CC(=O)O)C3)nc(-c3ccc(C(=O)Nc4cc(C(F)(F)F)ccn4)cc3)c12 [Example 55, {(1R,3R)-3-[8-amino-1-(4-{[4-(trifluoromethyl)pyridin-2-yl]carbamoyl}phenyl)imidazo[1,5-a]pyrazin-3-yl]cyclopentyl}acetic acid]

Same assay, conditions: Homo sapiens; accumulation of tritiated adenosine into HeLa cells; compound concentration range 10 μM to 0.032 nM; read-out: ADU inhibition IC50 (adenosine uptake inhibition potency)

Row | Compound | IC50
9 | CC(C)[C@@]1(C(=O)O)CC[C@H](c2nc(-c3ccc(C(=O)Nc4cc(C(F)(F)F)ccn4)cc3)c3c(N)nccn23)C1 [Example 48, (1R,3S)-3-[8-amino-1-(4-{[4-(trifluoromethyl)pyridin-2-yl]carbamoyl}phenyl)imidazo[1,5-a]pyrazin-3-yl]-1-(1-methylethyl) cyclopentane-carboxylic acid] | 3.76 µM
10 | CC(C)[C@]1(C(=O)O)CC[C@H](c2nc(-c3ccc(C(=O)Nc4cc(C(F)(F)F)ccn4)cc3)c3c(N)nccn23)C1 [Example 49, (1S,3S)-3-[8-amino-1-(4-{[4-(trifluoromethyl)pyridin-2-yl]carbamoyl}phenyl)imidazo[1,5-a]pyrazin-3-yl]-1-(1-methylethyl) cyclopentane-carboxylic acid] | 0.922 µM
11 | Nc1nccn2c([C@@H]3C[C@@H]4[C@H](C3)[C@@H]4C(=O)O)nc(-c3ccc(C(=O)Nc4cc(C(F)(F)F)ccn4)cc3)c12 [Example 124, (1R,3r,5S,6s)-3-[8-amino-1-(4-{[4-(trifluoromethyl)pyridin-2-yl]carbamoyl}phenyl)imidazo[1,5-a]pyrazin-3-yl]bicyclo[3.1.0] hexane-6-carboxylic acid] | 6.12 µM
12 | Nc1nccn2c([C@H]3C[C@@H]4[C@H](C3)[C@@H]4C(=O)O)nc(-c3ccc(C(=O)Nc4cc(C(F)(F)F)ccn4)cc3)c12 [Example 140, (1R,3r,5S,6s)-3-[8-amino-1-(4-{[4-(trifluoromethyl)pyridin-2-yl]carbamoyl}phenyl)imidazo[1,5-a]pyrazin-3-yl]bicyclo[3.1.0] hexane-6-carboxylic acid] | 10 µM
13 | C[C@@]1(C(=O)O)CC[C@H](c2nc(-c3ccc(C(=O)Nc4cc(C(F)(F)F)ccn4)cc3)c3c(N)nccn23)C1 [Example 40, (1R,3S)-3-[8-amino-1-(4-{[4-(trifluoromethyl)pyridin-2-yl]carbamoyl}phenyl)imidazo[1,5-a]pyrazin-3-yl]-1-methylcyclopentane-carboxylic acid] | 5.28 µM
14 | C[C@]1(C(=O)O)CC[C@@H](c2nc(-c3ccc(C(=O)Nc4cc(C(F)(F)F)ccn4)cc3)c3c(N)nccn23)C1 [Example 37, (1S,3R)-3-[8-amino-1-(4-{[4-(trifluoromethyl)pyridin-2-yl]carbamoyl}phenyl)imidazo[1,5-a]pyrazin-3-yl]-1-methylcyclopentane-carboxylic acid] | 8.55 µM
15 | Nc1nccn2c([C@H]3C[C@@H]4[C@H](C3)[C@H]4C(=O)O)nc(-c3ccc(C(=O)Nc4cc(C(F)(F)F)ccn4)cc3)c12 [Example 139, (1R,3R,5S,6r)-3-[8-amino-1-(4-{[4-(trifluoromethyl)pyridin-2-yl]carbamoyl}phenyl)imidazo[1,5-a]pyrazin-3-yl]bicyclo[3.1.0] hexane-6-carboxylic acid] | 10 µM
16 | Nc1nccn2c([C@H]3CC[C@@H](C(=O)O)C3)nc(-c3ccc(C(=O)Nc4cc(C(F)(F)F)ccn4)cc3)c12 [Example 14, (1R,3S)-3-(8-amino-1-(4-((4-(trifluoromethyl)pyridin-2-yl)carbamoyl)phenyl)imidazo[1,5-a]pyrazin-3-yl)cyclopentanecarboxylic acid] | 2.5 µM
17 | CC(C)[C@]1(C(=O)O)CCC[C@@H](c2nc(-c3ccc(C(=O)Nc4cc(C(F)(F)F)ccn4)cc3)c3c(N)nccn23)C1 [Example 89, (1S,3R)-3-[8-amino-1-(4-{[4-(trifluoromethyl)pyridin-2-yl]carbamoyl}phenyl)imidazo[1,5-a]pyrazin-3-yl]-1-(1-methylethyl) cyclohexane-carboxylic acid] | 3.41 µM
18 | C[C@]1(C(=O)O)CCC[C@@H](c2nc(-c3ccc(C(=O)Nc4cc(C(F)(F)F)ccn4)cc3)c3c(N)nccn23)C1 [Example 154, (1S,3R)-3-[8-amino-1-(4-{[4-(trifluoromethyl)pyridin-2-yl]carbamoyl}phenyl)imidazo[1,5-a]pyrazin-3-yl]-1-methylcyclohexane-carboxylic acid] | 10 µM
19 | Nc1nccn2c([C@@H]3C[C@@H]4[C@H](C3)[C@H]4C(=O)O)nc(-c3ccc(C(=O)Nc4cc(C(F)(F)F)ccn4)cc3)c12 [Example 125, (1R,3R,5S,6r)-3-[8-amino-1-(4-{[4-(trifluoromethyl)pyridin-2-yl]carbamoyl}phenyl)imidazo[1,5-a]pyrazin-3-yl]bicyclo[3.1.0]hexane-6-carboxylic acid] | 2.69 µM
20 | CC(C)[C@]1(C(=O)O)CC[C@@H](c2nc(-c3ccc(C(=O)Nc4cc(C(F)(F)F)ccn4)cc3)c3c(N)nccn23)C1 [Example 46, (1S,3R)-3-[8-amino-1-(4-{[4-(trifluoromethyl)pyridin-2-yl]carbamoyl}phenyl)imidazo[1,5-a]pyrazin-3-yl]-1-(1-methylethyl) cyclopentane carboxylic acid] | 4 µM
21 | CC(C)[C@H]1CC[C@@H](c2nc(-c3ccc(C(=O)Nc4cc(C(F)(F)F)ccn4)cc3)c3c(N)nccn23)C[C@H]1C(=O)O [Example 99, (1R,2R,5R)-5-[8-amino-1-(4-{[4-(trifluoromethyl)pyridin-2-yl]carbamoyl}phenyl)imidazo[1,5-a]pyrazin-3-yl]-2-(1-methylethyl) cyclohexane-carboxylic acid] | 2.51 µM
22 | Nc1nccn2c1c(-c1ccc(C(=O)Nc3cc(C(F)(F)F)ccn3)cc1)nc2[C@H]1CC[C@@H](C(=O)O)CC1 [Example 158, cis-4-[8-amino-1-(4-{[4-(trifluoromethyl)pyridin-2-yl]carbamoyl}phenyl)imidazo[1,5-a]pyrazin-3-yl]cyclohexane-carboxylic acid] | 10 µM
